Structures are written as SMILES.

Results on 1 molecule are retold here after US20140286868A1, “IMMORTALIZED HUMAN PROSTATE CELL LINES” (Tuskegee University, priority 2011, published 2014).

The test system of one assay is RC-77T/E cells. Briefly: Androgen sensitivity: cell proliferation by MTT assay, RC-77T/E cells. It counts as cell-based, human. Particulars: 4 days. The method, then:
(§1) Since androgen receptor expression was observed both cell lines, an experiment was conducted to determine the effects of androgen stimulation on the growth of RC-77N/E and RC-77T/E cells. Cells were grown in serum-free K-SFM at different doses of Methyltrienolone (R1881), a synthetic androgen, for 4 days.
(§2) In this experiment, 2×10^4 cells per well of each line were grown in serum-free K-SFM with 0.1% BSA in the presence of 0, 0.1, 1.0, 10.0 and 100.0 nM for 4 days. K-SFM was supplemented with or without Methyltrienolone (R1881) (obtained from Perkin-Elmer, Waltham, Mass.), at concentrations of 0.1, 1, 10 and 100 nM, respectively. Cell proliferation was determined by MTT assay according to a procedure as generally described by Wells et al. (“Luteinizing hormone-releasing hormone agonist limits DU-145 prostate cancer growth by attenuating epidermal growth factor receptor signaling.” Clin. Cancer Res. 8: 1251-1257, 2002.).
(§3) The results from this experiment are illustrated in the chart of FIG. 4, with percent growth being determined by the number of cell counts being expressed as the mean value of triplicate observation. […] Further, the RC-77T/E cells were found responsive to 0.1 nM R1881, while RC-77N/E cells were only responsive at the higher dosage of 1.0 nM.

The next assay deals with RC-77N/E cells. Briefly: Androgen sensitivity: cell proliferation by MTT assay, RC-77N/E cells. It counts as cell-based, human. The conditions noted are these: 4 days. The method, then: as §1, §2, §3
Where [1] appears, read: 1.0 nM R1881, serum-free K-SFM with 0.1% BSA.
[2] abbreviates: 100.0 nM R1881, serum-free K-SFM with 0.1% BSA.

In the case of `C[C@]1(O)CC[C@H]2[C@@H]3CCC4=CC(=O)CCC4=C3C=C[C@@]21C` [R1881, Methyltrienolone], in the assay with RC-77T/E cells (0.1 nM R1881, serum-free K-SFM with 0.1% BSA), the “cell growth response to androgen stimulation” value is listed as “responsive”. The cell growth entry is recorded as “Significant stimulation in cell growth” in the assay with RC-77T/E cells (setting [1]), “inhibition of cell growth” with RC-77T/E cells (setting [2]), “Significant stimulation in cell growth” in the assay with RC-77N/E cells (setting [1]) and “inhibition of cell growth” in the assay on RC-77N/E cells (setting [2]).
